Values of other authors in the PKSmart pharmacokinetics tables (Seal et al. 2025).

Experiment: Lombardo, Berellini, Obach 2018, Drug Metab Dispos 46:1466, doi 10.1124/dmd.118.082966
Conditions: human; for MRT / Vd / clearance / half-life: in vivo, iv; for fraction unbound: plasma

SMILES | MRT [h] | Vd [L/kg] | clearance [mL/min/kg] | half-life [h] | fraction unbound
COc1ccc(/C=C\c2cc(OC)c(OC)c(OC)c2)cc1OP(=O)(O)O | 0.3 | 0.11 | 5.86 | 0.47 | 0.23
COc1cccc(OCCCN)c1-c1cc(Nc2cnc(C#N)cn2)n[nH]1 | 11.2 | 22.8 | 34 | 12.5 | –
NC(Cc1ccc(N(CCCl)CCCl)cc1)C(=O)O (stereo unspecified) | – | – | – | – | 0.14
COc1cc2c(cc1OC)CN(CCc1ccc(NC(=O)c3cc(OC)c(OC)cc3NC(=O)c3cnc4ccccc4c3)cc1)CC2 | 38 | 6.4 | 2.8 | 29 | –
O=c1ccc2ccccc2o1 | 0.78 | 1.1 | 23.6 | 0.8 | 0.17
CCOc1cc([C@@H](CS(C)(=O)=O)N2C(=O)c3cccc(CC(C)=O)c3C2=O)ccc1OC | – | – | 2.38 | 6.03 | 0.32
C[N+]1(C)[C@@H]2CC(OC(=O)C(O)(c3cccs3)c3cccs3)C[C@H]1[C@@H]1O[C@@H]12 (stereo partly specified) | 42.3 | 32 | – | – | 0.28
CC(C(=O)O)c1ccc(C(=O)c2ccccc2)s1 (stereo unspecified) | 2.3 | 0.08 | 0.62 | 2.1 | 0.015
O=C1CCc2ccc(OCCCCN3CCN(c4cccc(Cl)c4Cl)CC3)cc2N1 | 98 | 4.9 | 0.83 | 75 | –
CO[C@H]1C[C@@H](O[C@@H]2C(C)C(=O)O[C@H](C)[C@H](C)[C@H](O)C(C)C(=O)[C@@]3(CO3)C[C@H](C)[C@H](O[C@H]3O[C@@H](C)C[C@@H](N(C)C)[C@H]3O)[C@H]2C)O[C@@H](C)[C@@H]1O (stereo partly specified) | 1.41 | 0.77 | 9.1 | 1.05 | 0.4
CC[N+](C)(C)c1cccc([O-])c1 | 1.9 | 1.1 | 9.6 | 1.8 | –
CN[C@@H]1[C@@H](O)[C@@H](O[C@@H]2[C@@H](O)[C@H](O[C@H]3O[C@H]([C@@H](C)N)CC[C@H]3N)[C@@H](N)C[C@H]2N)OC[C@]1(C)O | – | – | – | – | 1
CNCCC=C1c2ccccc2CCc2ccccc21 | 37 | 22 | 10 | 30 | –
C[C@@H]1CCN(C(=O)CC#N)C[C@@H]1N(C)c1ncnc2[nH]ccc12 | 3.5 | 1.24 | 5.88 | – | 0.6
CC[C@H]1CN2CC[C@H]1C[C@@H]2[C@@H](O)c1ccnc2ccc(OC)cc12 | 11 | 2.8 | 4.2 | 5.7 | 0.22
[H]/N=C(\N)c1cccc(CC(C(=O)OC)[C@@H](C)NC(=O)c2ccc(-c3cc[n+]([O-])cc3)cc2)c1 (stereo partly specified) | 2.02 | 0.89 | 7.38 | 3 | –
CN(C)CCCOc1nn(Cc2ccccc2)c2ccccc12 | 11.4 | 1.53 | 2.28 | 8.1 | 0.8
C[C@@H]1C[C@H]2C3C[C@H](F)C4=CC(=O)C=C[C@]4(C)[C@@]3(F)[C@@H](O)C[C@]2(C)[C@@]1(OC(=O)c1ccco1)C(=O)SCF (stereo partly specified) | – | 4.95 | 13.4 | 10.6 | –
CN1CCN2c3ncccc3Cc3ccccc3C2C1 (stereo unspecified) | 8.8 | 4.2 | 8 | – | –
CCCCCCCCc1ccc(CCC(N)(CO)CO)cc1 | 189 | 17.3 | 1.53 | 144 | 0.002
Oc1cc2c(cc1O)[C@H](Cc1cccc3ccccc13)NCC2 | 0.12 | 1.09 | 156 | 1.58 | –
N=C(N)N=c1[nH]c(CSCCC(=N)NS(N)(=O)=O)cs1 | 3 | 1.2 | 6.6 | 2.8 | 0.84
C=C1C=CC=C(C)[C@H](O)[C@@H](C)[C@@H](O)[C@@H](C)[C@H](OC(C)=O)[C@H](C)[C@@H](OC)/C=C/O[C@@]2(C)Oc3c(C)c(O)c4c(O)c(c5c(c4c3C2=O)NC2(CCN(CC(C)C)CC2)N5)NC1=O | 65 | 9.3 | 2.4 | 37 | –

SMILES | MRT [h] | Vd [L/kg] | clearance [mL/min/kg] | half-life [h] | fraction unbound
O=C1c2cccc3c2[C@H](CCC3)CN1[C@@H]1CN2CCC1CC2 | 40 | 6.3 | 2.6 | 39 | 0.38
C[C@@]1(Cn2ccnn2)C(C(=O)O)N2C(=O)C[C@H]2S1(=O)=O (stereo partly specified) | 0.89 | 0.26 | 4.81 | 0.97 | 0.7
COc1cc2nc(N(C)CCCNC(=O)C3CCCO3)nc(N)c2cc1OC (stereo unspecified) | 4.2 | 1.5 | 5.9 | 4.8 | 0.14
CCCc1c(O)n2c(N(C)C)nc3ccc(C)cc3[n+]2c1O | 14 | 0.12 | 0.14 | 17 | 0.004
CN(C)CCCNC(=O)/C(=C/CCCCC(O)=NO)COc1cccc2ccccc12 | 4.1 | 0.45 | 1.82 | 2.1 | –
O=S(=O)(c1cccc2cnccc12)N1CCCNCC1 | 0.26 | 1.22 | – | – | –
CN1CCN(C(=O)OC2c3nccnc3C(=O)N2c2ccc(Cl)cn2)CC1 (stereo unspecified) | 6.6 | 1.3 | 3.3 | 5.2 | –
CCC1C(=O)N(C)c2cnc(Nc3ccc(C(=O)N[C@H]4CC[C@H](N5CCN(CC6CC6)CC5)CC4)cc3OC)nc2N1C(C)C (stereo partly specified) | 116 | 80.5 | 11.6 | 113 | –
S=P(N1CC1)(N1CC1)N1CC1 | 4 | 1.6 | 6.7 | 2.7 | –
COc1ccnc(C[S+](O)c2nc3cc(-n4cccc4)ccc3[n-]2)c1C (stereo unspecified) | 4.32 | 0.19 | 0.73 | 3.59 | –
CC1(C)O[C@@H]2C[C@H]3[C@@H]4C[C@H](F)C5=CC(=O)C=C[C@@]5(C)[C@H]4[C@@H](O)C[C@]3(C)[C@]2(C(=O)CO)O1 | 1.89 | 1.08 | 9.5 | 1.68 | –
OC[C@H]1O[C@@H]2O[C@H]3[C@H](O)[C@@H](O)[C@@H](O[C@H]4[C@H](O)[C@@H](O)[C@@H](O[C@H]5[C@H](O)[C@@H](O)[C@@H](O[C@H]6[C@H](O)[C@@H](O)[C@@H](O[C@H]7[C@H](O)[C@@H](O)[C@@H](O[C@H]8[C@H](O)[C@@H](O)[C@@H](O[C@H]1[C@H](O)[C@H]2O)O[C@@H]8CO)O[C@@H]7CO)O[C@@H]6CO)O[C@@H]5CO)O[C@@H]4CO)O[C@@H]3CO | 1.9 | 0.21 | 1.8 | 1.6 | –
CON=C(C(=O)NC1C(=O)N2C(C(=O)O)=C(CSc3cnns3)CS[C@H]12)c1csc(N)n1 (stereo partly specified) | 0.82 | 0.2 | 4.1 | 1.14 | 0.12
CCCC(=O)Nc1ccc(OCC(O)CNC(C)C)c(C(C)=O)c1 (stereo unspecified) | 2.8 | 1.7 | – | 3.5 | –
COc1ccc(CC(NC(=O)CC(C)(C)N)C(=O)NC(Cc2c[nH]cn2)C(=O)N[C@@H](CC2CCCCC2)[C@@H](O)[C@@H](O)CC(C)C)cc1 (stereo partly specified) | 3.1 | 0.11 | 0.45 | 1.72 | 0.07
NCCNc1ccc(NCCN)c2c1C(=O)c1ccncc1C2=O | 8.9 | 10.1 | 17.7 | 13.4 | –
O=C(O[C@H]1CN2CCC1CC2)N1CCc2ccccc2[C@@H]1c1ccccc1 | 65 | 8.2 | – | 52 | –
N#Cc1c(N2C[C@@H]3NCCO[C@H]3C2)c(F)cc2c(=O)c(C(=O)O)cn(C3CC3)c12 | 4.11 | 1.42 | 5.75 | 13.4 | 0.75
CN(C)CCN1C(=O)c2cccc3cc(N)cc(c23)C1=O | 6.34 | 7.33 | 19.3 | 4.78 | –
Cc1cnc(C(=O)NC2CCCCC/C=C\[C@@H]3C[C@@]3(C(=O)NS(=O)(=O)C3CC3)NC(=O)C3C[C@@H](Oc4nc5ccccc5c5ccccc45)CN3C2=O)cn1 (stereo partly specified) | 3.96 | 1.37 | 5.74 | 8.71 | 0.022
COc1cc2c(cc1OC)[C@H]1C[C@@H](OC(=O)C(N)C(C)C)[C@H](CC(C)C)CN1CC2 (stereo partly specified) | 12.8 | 1.31 | 1.71 | 18 | 0.01
Cc1nc2n(c(=O)c1CCN1CCC(c3noc4cc(F)ccc34)CC1)CCCC2O (stereo unspecified) | – | – | 1.18 | 24.6 | 0.24
CN1C[C@@H]2c3ccccc3Oc3ccc(Cl)cc3[C@H]2C1 | 30.9 | 23 | 12.4 | – | –

SMILES | MRT [h] | Vd [L/kg] | clearance [mL/min/kg] | half-life [h] | fraction unbound
COc1ccc(-c2nc3cc(C4=NNC(=O)CC4C)ccc3[nH]2)cc1 (stereo unspecified) | 2.2 | 2 | – | 1.8 | 0.024
C=C1CC[C@@H]2[C@](C)(COC(=O)CCC(=O)O)[C@H](OC(=O)CCC(=O)O)CC[C@@]2(C)[C@@H]1/C=C/C1=CCOC1=O | 1 | 0.13 | 2 | 1.9 | –
CCCCc1oc2ccc(NS(C)(=O)=O)cc2c1C(=O)c1ccc(OCCCN(CCCC)CCCC)cc1 | 10 | 20 | 33.3 | 16 | 0.02
CC=CC1=C(C(=O)O)N2C(=O)C(NC(=O)C(N)c3ccc(O)cc3)[C@H]2SC1 (stereo partly specified) | 1.2 | 0.21 | 2.9 | 1.2 | –
N=C(N)NCCCC(NC(=O)C1CCCN1C(=O)C1CSSCCC(=O)NC(Cc2ccc(O)cc2)C(=O)NC(Cc2ccccc2)C(=O)NC(CCC(N)=O)C(=O)NC(CC(N)=O)C(=O)N1)C(=O)NCC(N)=O (stereo unspecified) | 3.6 | 0.3 | 1.4 | 3 | –
CCC(C)(C)NCC(O)COc1ccccc1C(=O)CCc1ccccc1 (stereo unspecified) | 1.9 | 1.2 | 11 | 1.5 | 0.017
O=C(O[C@H]1CC2CC[C@@H](C1)[N+]21CCCC1)C(O)(c1ccccc1)c1ccccc1 | 6.1 | 5.1 | 13.9 | 5 | 0.33
NC(=O)C1CC[C@@H]2CN1C(=O)N2OS(=O)(=O)O (stereo partly specified) | 1.4 | 0.24 | 2.76 | 1.7 | 0.93
COc1ccc2[nH]cc(CCNC(C)=O)c2c1 | 1.1 | 1.1 | 16.5 | 1.1 | 0.39
CC(CN1CCN(CCOCCO)CC1)CN1c2ccccc2Sc2ccccc21 (stereo unspecified) | 4.16 | 4.06 | 16.3 | 3.11 | –
CNCCCC12CCC(c3ccccc31)c1ccccc12 | 54 | 45 | 14 | 51 | 0.11
O=C(NCCN1CCOCC1)c1ccc(Cl)cc1 | 1.8 | 1.1 | 10 | 1.5 | –
CCCOC(C(=O)OC1CCN(C)CC1)(c1ccccc1)c1ccccc1 | 15.4 | 2.73 | 2.94 | 15.2 | 0.1
Cc1cnc(C(=O)NCCc2ccc(S(=O)(=O)NC(=O)NC3CCCCC3)cc2)cn1 | 4.8 | – | – | – | –
O=C1NCC2(CCN(CCc3ccccc3)CC2)O1 | 19 | 3 | 2.6 | 14 | –
CC[C@@H](C)N(C)C(=O)c1cc2ccccc2c(-c2ccccc2Cl)n1 | 5.4 | 1.7 | 5.9 | 3.7 | –
NCC1CCC(C(=O)O)CC1 (stereo unspecified) | 2.6 | 0.38 | 2.4 | 2.3 | –
O=C(O)C1O[C@@H](Oc2cc3oc(-c4ccc(O)cc4)cc(=O)c3c(O)c2O)[C@H](O)[C@@H](O)[C@@H]1O (stereo partly specified) | 0.31 | 0.88 | 46.6 | 1.18 | 0.1
CCCN(CCc1cccs1)[C@H]1CCc2c(O)cccc2C1 | 2.6 | 5.7 | 37 | 4 | 0.08
C[N+]1(CC2CC2)CC[C@]23c4c5ccc([O-])c4OC2C(=O)CC[C@@]3(O)[C@H]1C5 (stereo partly specified) | – | – | – | – | 0.87
CC[C@@H]([C@H](C)O)n1ncn(-c2ccc(N3CCN(c4ccc(OC[C@H]5CO[C@@](Cn6cncn6)(c6ccc(F)cc6F)C5)cc4)CC3)cc2)c1=O | 14.5 | 3.8 | 4.3 | 10.6 | 0.013
CCOC(=O)Nc1ccc(NCc2ccc(F)cc2)cc1N | 5 | 2.5 | 8.3 | 9 | 0.2
CC(=O)Nc1ccc(OC[C@H](O)CNC(C)C)cc1 | – | – | 2.28 | 12.2 | 0.93
